The supplement of paper PMC10307832

Legend:
Assay in all cases: relative viability (nuclei count vs DMSO), 5 days (fraction); higher = more cells survive
[1] = compound: CNC(=O)c1ccccc1Sc1ccc2c(/C=C/c3ccccn3)n[nH]c2c1 [Axitinib] + COc1cc2c(Oc3ccc(NC(=O)C4(C(=O)Nc5ccc(F)cc5)CC4)cc3F)ccnc2cc1OCCCN1CCOCC1 [Foretinib] (partner 0.25 µM)
In short: (§1)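 Dosing by pin tool came one day after lung cancer cell lines were seeded in 1536-well plates, using either one drug or a fixed anchor-drug dose plus five library-drug doses (not always all listed) in √10 steps. After 5 days, nuclei were counted on 4× images. Relative viability is treated-well nuclei count divided by vehicle-well nuclei count, and values are medians of duplicate plates.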

[2] = compound: CNC(=O)c1ccccc1Sc1ccc2c(/C=C/c3ccccn3)n[nH]c2c1 [Axitinib] + CS(=O)(=O)N1CCN(Cc2cc3nc(-c4cccc5[nH]ncc45)nc(N4CCOCC4)c3s2)CC1 [Pictilisib] (partner 1 µM)
In short: as §1

[3] = compound: CC1=CC=C(C=C1)C(=O)CN2C3=C(CCCC3)SC2=N [Pifithrin_alpha] + Nc1nc2[nH]cc(CCc3ccc(C(=O)N[C@@H](CCC(=O)O)C(=O)O)cc3)c2c(=O)[nH]1 [Pemetrexed] (partner 0.2 µM)
In short: as §1

[4] = compound: Nc1nc(Nc2ccc3c(c2)CC[C@@H](N2CCCC2)CC3)nn1-c1cc2c(nn1)-c1ccccc1CCC2 [Bemcentinib] + Cc1nc(NC(=O)N2CCC[C@H]2C(N)=O)sc1-c1ccnc(C(C)(C)C(F)(F)F)c1 [Alpelisib] (partner 2 µM)
In short: as §1

NCI-H2347
relative viability ([1]; first compound 0.005 µM): 0.954
relative viability ([1]; first compound 0.01581 µM): 0.747
relative viability ([1]; first compound 0.05 µM): 1.12
relative viability ([1]; first compound 0.1581 µM): 1.11
relative viability ([1]; first compound 0.5 µM): 0.799
relative viability ([2]; first compound 0.005 µM): 0.605
relative viability ([2]; first compound 0.01581 µM): 0.584
relative viability ([2]; first compound 0.05 µM): 0.876
relative viability ([2]; first compound 0.1581 µM): 0.855
relative viability ([2]; first compound 0.5 µM): 0.783
relative viability ([3]; first compound 1 µM): 0.406
relative viability ([3]; first compound 3.162 µM): 0.416
relative viability ([3]; first compound 10 µM): 0.441
relative viability ([3]; first compound 31.62 µM): 0.485
relative viability ([3]; first compound 100 µM): 0.447
relative viability ([4]; first compound 0.04 µM): 1.14
relative viability ([4]; first compound 0.1265 µM): 1.08
relative viability ([4]; first compound 0.4 µM): 1.07
relative viability ([4]; first compound 1.265 µM): 1.1
relative viability ([4]; first compound 4 µM): 0.974

NCI-H2405
relative viability ([1]; first compound 0.005 µM): 1.03
relative viability ([1]; first compound 0.01581 µM): 1.04
relative viability ([1]; first compound 0.05 µM): 1.13
relative viability ([1]; first compound 0.1581 µM): 1.03
relative viability ([1]; first compound 0.5 µM): 1.15
relative viability ([2]; first compound 0.005 µM): 0.422
relative viability ([2]; first compound 0.01581 µM): 0.534
relative viability ([2]; first compound 0.05 µM): 0.658
relative viability ([2]; first compound 0.1581 µM): 0.465
relative viability ([2]; first compound 0.5 µM): 0.383
relative viability ([3]; first compound 3.162 µM): 0.86
relative viability ([3]; first compound 10 µM): 0.957
relative viability ([3]; first compound 31.62 µM): 0.802
relative viability ([3]; first compound 100 µM): 0.971
relative viability ([4]; first compound 0.04 µM): 0.728
relative viability ([4]; first compound 0.1265 µM): 0.732
relative viability ([4]; first compound 0.4 µM): 0.847
relative viability ([4]; first compound 1.265 µM): 0.756
relative viability ([4]; first compound 4 µM): 0.72

NCI-H3122
relative viability ([1]; first compound 0.005 µM): 0.928
relative viability ([1]; first compound 0.01581 µM): 0.847
relative viability ([1]; first compound 0.05 µM): 1.02
relative viability ([1]; first compound 0.1581 µM): 1.01
relative viability ([1]; first compound 0.5 µM): 0.951
relative viability ([2]; first compound 0.005 µM): 0.579
relative viability ([2]; first compound 0.01581 µM): 0.592
relative viability ([2]; first compound 0.05 µM): 0.627
relative viability ([2]; first compound 0.1581 µM): 0.594
relative viability ([2]; first compound 0.5 µM): 0.598
relative viability ([3]; first compound 1 µM): 0.224
relative viability ([3]; first compound 3.162 µM): 0.198
relative viability ([3]; first compound 10 µM): 0.184
relative viability ([3]; first compound 31.62 µM): 0.166
relative viability ([3]; first compound 100 µM): 0.203
relative viability ([4]; first compound 0.04 µM): 0.447
relative viability ([4]; first compound 0.1265 µM): 0.825
relative viability ([4]; first compound 0.4 µM): 0.829
relative viability ([4]; first compound 1.265 µM): 0.819
relative viability ([4]; first compound 4 µM): 0.82

PC-3 [JPC-3]
relative viability ([1]; first compound 0.005 µM): 1.01
relative viability ([1]; first compound 0.01581 µM): 0.988
relative viability ([1]; first compound 0.05 µM): 1.02
relative viability ([1]; first compound 0.1581 µM): 1
relative viability ([1]; first compound 0.5 µM): 1.23
relative viability ([2]; first compound 0.005 µM): 0.729
relative viability ([2]; first compound 0.05 µM): 0.672
relative viability ([2]; first compound 0.1581 µM): 0.715
relative viability ([2]; first compound 0.5 µM): 0.853
relative viability ([3]; first compound 3.162 µM): 1.08
relative viability ([3]; first compound 31.62 µM): 0.769
relative viability ([3]; first compound 100 µM): 1.04
relative viability ([4]; first compound 0.04 µM): 0.986
relative viability ([4]; first compound 0.1265 µM): 1.1
relative viability ([4]; first compound 0.4 µM): 0.985
relative viability ([4]; first compound 1.265 µM): 1.1
relative viability ([4]; first compound 4 µM): 1.08

PC-14
relative viability ([1]; first compound 0.005 µM): 0.92
relative viability ([1]; first compound 0.01581 µM): 0.819
relative viability ([1]; first compound 0.05 µM): 0.989
relative viability ([1]; first compound 0.1581 µM): 0.861
relative viability ([1]; first compound 0.5 µM): 1.03
relative viability ([2]; first compound 0.005 µM): 0.919
relative viability ([2]; first compound 0.01581 µM): 0.699
relative viability ([2]; first compound 0.05 µM): 0.676
relative viability ([2]; first compound 0.1581 µM): 0.731
relative viability ([2]; first compound 0.5 µM): 0.834
relative viability ([3]; first compound 1 µM): 0.143
relative viability ([3]; first compound 3.162 µM): 0.121
relative viability ([3]; first compound 10 µM): 0.133
relative viability ([3]; first compound 31.62 µM): 0.0962
relative viability ([3]; first compound 100 µM): 0.0885
relative viability ([4]; first compound 0.04 µM): 0.995
relative viability ([4]; first compound 0.1265 µM): 1.01
relative viability ([4]; first compound 0.4 µM): 0.925
relative viability ([4]; first compound 1.265 µM): 0.985
relative viability ([4]; first compound 4 µM): 1.04

RERF-LC-KJ
relative viability ([1]; first compound 0.005 µM): 0.916
relative viability ([1]; first compound 0.01581 µM): 0.892
relative viability ([1]; first compound 0.05 µM): 0.887
relative viability ([1]; first compound 0.1581 µM): 0.86
relative viability ([1]; first compound 0.5 µM): 0.854
relative viability ([2]; first compound 0.005 µM): 0.583
relative viability ([2]; first compound 0.01581 µM): 0.654
relative viability ([2]; first compound 0.05 µM): 0.544
relative viability ([2]; first compound 0.1581 µM): 0.603
relative viability ([2]; first compound 0.5 µM): 0.51
relative viability ([3]; first compound 1 µM): 0.437
relative viability ([3]; first compound 3.162 µM): 0.445
relative viability ([3]; first compound 10 µM): 0.507
relative viability ([3]; first compound 31.62 µM): 0.452
relative viability ([3]; first compound 100 µM): 0.396
relative viability ([4]; first compound 0.04 µM): 0.748
relative viability ([4]; first compound 0.1265 µM): 0.785
relative viability ([4]; first compound 0.4 µM): 0.91
relative viability ([4]; first compound 1.265 µM): 0.859
relative viability ([4]; first compound 4 µM): 0.919

SK-LU-1
relative viability ([1]; first compound 0.005 µM): 0.904
relative viability ([1]; first compound 0.01581 µM): 0.959
relative viability ([1]; first compound 0.05 µM): 0.929
relative viability ([1]; first compound 0.1581 µM): 0.849
relative viability ([1]; first compound 0.5 µM): 1.1
relative viability ([2]; first compound 0.005 µM): 0.553
relative viability ([2]; first compound 0.01581 µM): 0.569
relative viability ([2]; first compound 0.05 µM): 0.558
relative viability ([2]; first compound 0.1581 µM): 0.567
relative viability ([2]; first compound 0.5 µM): 0.659
relative viability ([3]; first compound 1 µM): 1.03
relative viability ([3]; first compound 3.162 µM): 1.03
relative viability ([3]; first compound 10 µM): 1.07
relative viability ([3]; first compound 31.62 µM): 0.752
relative viability ([3]; first compound 100 µM): 1.14
relative viability ([4]; first compound 0.04 µM): 1.08
relative viability ([4]; first compound 0.1265 µM): 1.13
relative viability ([4]; first compound 0.4 µM): 1.1
relative viability ([4]; first compound 1.265 µM): 1.1
relative viability ([4]; first compound 4 µM): 1.1

SK-MES-1
relative viability ([1]; first compound 0.005 µM): 0.976
relative viability ([1]; first compound 0.01581 µM): 0.977
relative viability ([1]; first compound 0.05 µM): 1.02
relative viability ([1]; first compound 0.1581 µM): 0.925
relative viability ([1]; first compound 0.5 µM): 0.951
relative viability ([2]; first compound 0.005 µM): 0.303
relative viability ([2]; first compound 0.01581 µM): 0.391
relative viability ([2]; first compound 0.05 µM): 0.337
relative viability ([2]; first compound 0.1581 µM): 0.409
relative viability ([2]; first compound 0.5 µM): 0.481
relative viability ([3]; first compound 1 µM): 0.84
relative viability ([3]; first compound 3.162 µM): 0.845
relative viability ([3]; first compound 10 µM): 0.863
relative viability ([3]; first compound 31.62 µM): 0.494
relative viability ([3]; first compound 100 µM): 0.623
relative viability ([4]; first compound 0.04 µM): 0.914
relative viability ([4]; first compound 0.1265 µM): 0.973
relative viability ([4]; first compound 0.4 µM): 0.998
relative viability ([4]; first compound 1.265 µM): 1.08
relative viability ([4]; first compound 4 µM): 1.08

SW 1573
relative viability ([1]; first compound 0.005 µM): 0.743
relative viability ([1]; first compound 0.01581 µM): 0.915
relative viability ([1]; first compound 0.05 µM): 1.26
relative viability ([1]; first compound 0.1581 µM): 0.811
relative viability ([1]; first compound 0.5 µM): 0.989
relative viability ([2]; first compound 0.005 µM): 0.507
relative viability ([2]; first compound 0.01581 µM): 0.462
relative viability ([2]; first compound 0.05 µM): 0.576
relative viability ([2]; first compound 0.1581 µM): 0.444
relative viability ([2]; first compound 0.5 µM): 0.463
relative viability ([3]; first compound 3.162 µM): 1.03
relative viability ([3]; first compound 10 µM): 0.964
relative viability ([3]; first compound 31.62 µM): 0.593
relative viability ([3]; first compound 100 µM): 0.808
relative viability ([4]; first compound 0.04 µM): 0.716
relative viability ([4]; first compound 0.1265 µM): 0.803
relative viability ([4]; first compound 0.4 µM): 0.909
relative viability ([4]; first compound 1.265 µM): 0.886
relative viability ([4]; first compound 4 µM): 0.88

UMC-11
relative viability ([1]; first compound 0.005 µM): 1.01
relative viability ([1]; first compound 0.01581 µM): 1.1
relative viability ([1]; first compound 0.05 µM): 1.03
relative viability ([1]; first compound 0.1581 µM): 1.1
relative viability ([1]; first compound 0.5 µM): 1.1
relative viability ([2]; first compound 0.005 µM): 0.818
relative viability ([2]; first compound 0.01581 µM): 0.82
relative viability ([2]; first compound 0.05 µM): 0.857
relative viability ([2]; first compound 0.1581 µM): 0.835
relative viability ([2]; first compound 0.5 µM): 0.627
relative viability ([3]; first compound 1 µM): 0.866
relative viability ([3]; first compound 3.162 µM): 0.869
relative viability ([3]; first compound 10 µM): 0.824
relative viability ([3]; first compound 31.62 µM): 0.723
relative viability ([3]; first compound 100 µM): 1.08
relative viability ([4]; first compound 0.04 µM): 1.08
relative viability ([4]; first compound 0.1265 µM): 1.19
relative viability ([4]; first compound 0.4 µM): 1.11
relative viability ([4]; first compound 1.265 µM): 0.968
relative viability ([4]; first compound 4 µM): 1.05
